Patent publication US12529017B2, “Detergent composition comprising a lipase” (Novozymes A/S, priority 2020, dated 2026)

Assay: Butyric acid release (odor) from lipase washed butter swatches by SPME-GC, Model E1 detergent
Method: The butyric acid release (odor) from the lipase washed swatches were measured by Solid Phase Micro Extraction Gas Chromatography (SPME-GC) using the following method.
40 mL of Model E1 detergent wash liquor was added to a 50 mL test tube. CS-10 butter swatches (CFT) were prepared from 5×5 cm swatches as round punch-outs with a 2-cm diameter. The butter swatches were prepared using methods similar to those described in Example 1. Lipase and methyl ricinoleate (Sigma-Aldrich R8750) were added to the tubes according to the table below, followed by the addition of 10 steel balls and 2 CS-10 swatches per tube. The tubes were continuously agitated at 40 rpm for 25 minutes at 20° C. The samples were then rinsed with cold water for 5 min and finally dried on filter paper for 16 hours.
The dried CS-10 swatches were transferred to Gas Chromatograph (GC) vials, which were then sealed. The samples were incubated at 30° C. for 24 hours, heated to 140° C. for 30 minutes, and stored at 20-25° C. for at least 4 hours before analysis. The analyses were performed on a Shimadzu Nexis GC-2030 equipped with a Carboxen PDMS SPME fiber (85 μm). Sampling from each GC vial was performed at 50° C. for 8 minutes with the SPME fiber in the head-space over the textile pieces as the sampled compounds were subsequently injected onto the column (injector temperature=250° C. Column flow=2 mL helium/minute. Column over temperature gradient: 0 minute=50° C., 2 minutes=50° C., 6 minutes 45 seconds=240° C.). Detection was performed using a Flame Ionization Detector (FID). Retention time for butyric acid was identified using an authentic standard. The area of each peak was measured and compared to the area of the reference peak (Lipase 2, no methyl ricinoleate). The data presents the peak sizes as the % peak size relative to the corresponding peak size from the Lipase 2 alone wash conditions. The experiment was performed twice. The Coefficient of Variation (CV) was 5%.

| Molecule | Butyric acid peak size normalized to lipase alone (%) (methyl ricinoleate 1 mM, with Lipase 2, 25 minutes at 20° C.) | Butyric acid peak size normalized to lipase alone (%) (methyl ricinoleate 1 mM, without Lipase 2, 25 minutes at 20° C.) | Butyric acid peak size normalized to lipase alone (%) (methyl ricinoleate 5 mM, with Lipase 2, 25 minutes at 20° C.) | Butyric acid peak size normalized to lipase alone (%) (methyl ricinoleate 5 mM, without Lipase 2, 25 minutes at 20° C.) | Butyric acid peak size normalized to lipase alone (%) (Lipase 2 alone, no methyl ricinoleate (reference peak), 25 minutes at 20° C.) |
| --- | --- | --- | --- | --- | --- |
| CCCCCC[C@@H](O)C/C=C\CCCCCCCC(=O)OC [Methyl ricinoleate, methyl ricinoleate] | 88% | 0% | 89% | 0% |  |
| Lipase 2: Thermomyces lanuginosus lipase (TLL) SEQ ID NO: 1 with substitutions E1C+D27R+G38A+F51V+D96E+K981+D111A+G163K+H198S+Y220F+T231R+N233C+D254S+P256T (Novozymes A/S) (protein, listed as Thermomyces lanuginosus, mat_peptide (1)..(269)) CVSQDLFNQFNLFAQYSAAAYCGKNNRALAGTNITCTANACPEVEKADATVLYSFEDSGVGDVTGFLALDNTNKLIVLSFRGSRSIENWIGNLNFELIEINDICSGCRGHAGFTSSWRSVADTLRQKVEDAVREHPDYRVVFTGHSLGGALATVAGADLRGNKYDIDVFSYGAPRVGNRAFAEFLTVQTGGTLYRITSTNDIVPRLPPREFGYSHSSPEFWIKSGTLVLVRRCDIVKIEGIDATGGNNQPNIPSITAHLWYFGLIGTCL |  |  |  |  | 100% |
